Measured values from paper PMC12691669, “Inhibitors of the 20S proteasome β5 subunit as potent and selective agents against Trichomonas vaginalis” (Antimicrobial Agents and Chemotherapy, 2025).
Entries after “also recorded” stand apart in the source; their conditions may differ. Read-outs that look alike come from different tables or passages of the source.

How the values were obtained:
[1] = system: T. vaginalis Tv20S proteasome β2 subunit; test: In vitro proteasome assay, Ac-FRSR-amc substrate; format: biochemical, Trichomonas vaginalis; details: recombinant Tv20S, mean ± SD of three experiments; for IC50: read-out: Tv20S proteasome inhibition of β2 subunit (IC50)
Protocol: (§1) The T. vaginalis proteasome was expressed in recombinant form as previously described ([27]). Briefly, Spodoptera frugiperda cells were co-infected with three baculovirus vectors carrying the T. vaginalis genes for the 7 α-subunits, 7 β-subunits, and the Ump-1 chaperone, respectively. The resulting proteasome complex was purified from cell lysates via streptavidin column and size exclusion chromatography and stored at −80°C. Purified human c20S proteasome and recombinant human proteasome activator PA28α ([21]) were obtained from Bio-Techne and stored at −80°C. Dilutions of the test agents were transferred to 384-well plates (Greiner Bio-One) in triplicate wells using an Echo 650 Acoustic Liquid Handler (Beckman Coulter). Six replicate plates were prepared for each compound for testing with three T. vaginalis-optimized substrates and three human-optimized substrates. After dispensing, plates were sealed and stored at −20°C. The following fluorescent substrates and final substrate concentrations were used to assay subunit activities of the T. vaginalis proteasome (Tv20S) ([28]) or the human constitutive proteasome (c20S) ([19], [52]): Ac-RYFD-amc (Genscript) at 100 µM for Tv20S β1 subunit, Ac-FRSR-amc (Genscript) at 20 µM for Tv20S β2 subunit, Ac-GWYL-amc (Genscript) at 20 µM for Tv20S β5 subunit, z-LLE-amc (R&D Systems) at 80 µM for c20S β1 subunit, z-VLR-amc (AdipoGen Life Sciences) at 30 µM for c20S β2 subunit, and suc-LLVY-amc (R&D Systems) at 65 µM for c20S β5 subunit. Substrates and proteasomes were diluted in an assay buffer consisting of HEPES pH 7.5 and 1 mM DTT. For the human proteasome assays, 2 nM c20S was incubated at room temperature with 200 nM PA28α for 1 h to activate the complex prior to addition to the 384-well plates containing the substrate-inhibitor mixtures. […] Both proteasomes were added to the wells at a 1 nM final assay concentration. Fluorescence was measured over 4 h at 360 nm excitation and 460 nm emission on a Biotek Synergy HTX plate reader.

[2] = molecular target: T. vaginalis Tv20S proteasome β1 subunit (Trichomonas vaginalis, UniProt A2E7Z2); test: In vitro proteasome assay, Ac-RYFD-amc substrate; format: biochemical; details: recombinant Tv20S, mean ± SD of three experiments
Protocol: as §1

[3] = molecular target: T1, Human c20S proteasome β5 subunit (Homo sapiens, UniProt P20618+P28074); test: In vitro proteasome assay, suc-LLVY-amc substrate; format: biochemical; details: purified human c20S with PA28α, mean ± SD
T1 construct: purchased Bio-Techne
Protocol: as §1

[4] = molecular target: T2, Human c20S proteasome β2 subunit (Homo sapiens, UniProt P49720+Q99436); test: In vitro proteasome assay, z-VLR-amc substrate; format: biochemical
T2 construct: purchased Bio-Techne
Protocol: as §1

[5] = molecular target: T3, Human c20S proteasome β1 subunit (Homo sapiens, UniProt P28072+Q99436); test: In vitro proteasome assay, z-LLE-amc substrate; format: biochemical; details: purified human c20S with PA28α, mean ± SD; for IC50: read-out: Human c20S proteasome inhibition of β1 subunit (IC50)
T3 construct: purchased Bio-Techne
Protocol: as §1

[6] = molecular target: T. vaginalis Tv20S proteasome β5 subunit (Trichomonas vaginalis, UniProt A2DD57+A2F716); test: biochemical; format: biochemical
Protocol: as §1

[7] = system: T. vaginalis strain F1623; test: 24 h growth and survival assay (ATP luminescence, GI50); format: cell-based, Trichomonas vaginalis; details: for SI (ratio of GI50 in HeLa cells over GI50 in T. vaginalis): T. vaginalis F1623 vs human HeLa cells
Protocol: The following T. vaginalis strains were used: F1623 ([50]), G3 (ATCC PRA-98), and LA1 ([25]). […] Drug susceptibility assays were performed as described previously ([23]) with several minor modifications. Briefly, 10 mM stocks of the test compounds in DMSO were serially diluted 1:3 using an Echo 650 Acoustic Liquid Handler (Beckman Coulter). Subsequently, trophozoites (5 × 10^3/well) in TYM modified media were added to the wells in 384-well plates, and cultures were incubated for 24 h at 37°C under anaerobic conditions (AnaeroPack-Anaero System; Remel). For testing in mammalian cells, the following cell lines were used: Human cervical cancer cells HeLa (ATCC CCL-2), non-transformed mouse fibroblast cell line 3T3-L1 (ATCC CL-173), normal monkey kidney epithelial cell line Vero (ATCC CCL-81), and human B lymphoma cells Raji (ATCC CCL-86). Test compounds were serially diluted (1:3) and added to mammalian cell cultures grown in 384-well plates, and cultures were incubated for 48 h at 37°C in 5% CO2, 95% air. Growth and viability of T. vaginalis and mammalian cells were determined with an ATP assay by adding the BacTiter-Glo Microbial Cell Viability Assay reagent (Promega) directly to the wells and measuring ATP-dependent luminescence in a microplate reader. […] Experiments were repeated at least three times, and the mean and SEM of the pGI50 values were calculated.

[8] = purified human c20S with PA28α, mean ± SD
[9] = recombinant Tv20S, mean ± SD of three experiments, read-out: Tv20S proteasome inhibition of β5 subunit (IC50)
[10] = read-out: Human c20S proteasome inhibition of β5 subunit (IC50)
[11] = relative to parental compound 4
[12] = purified human c20S with PA28α, mean ± SD, read-out: Human c20S proteasome inhibition of β2 subunit (IC50)

T. vaginalis Tv20S proteasome β5 subunit, sequence (A2DD57 entry or part of it): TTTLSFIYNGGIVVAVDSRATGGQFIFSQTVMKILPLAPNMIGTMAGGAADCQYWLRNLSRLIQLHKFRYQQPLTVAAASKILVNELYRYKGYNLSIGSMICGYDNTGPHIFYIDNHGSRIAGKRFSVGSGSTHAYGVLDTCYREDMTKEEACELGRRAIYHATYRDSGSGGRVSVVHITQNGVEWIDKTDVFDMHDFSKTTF
T. vaginalis Tv20S proteasome β5 subunit, sequence (A2F716 entry or part of it): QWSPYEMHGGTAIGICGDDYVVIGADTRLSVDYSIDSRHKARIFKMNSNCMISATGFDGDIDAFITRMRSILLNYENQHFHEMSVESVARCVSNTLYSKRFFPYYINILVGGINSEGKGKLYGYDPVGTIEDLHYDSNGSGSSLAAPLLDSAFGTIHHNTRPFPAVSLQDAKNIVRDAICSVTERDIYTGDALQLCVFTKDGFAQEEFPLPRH
T. vaginalis Tv20S proteasome β1 subunit, sequence (A2E7Z2 entry or part of it): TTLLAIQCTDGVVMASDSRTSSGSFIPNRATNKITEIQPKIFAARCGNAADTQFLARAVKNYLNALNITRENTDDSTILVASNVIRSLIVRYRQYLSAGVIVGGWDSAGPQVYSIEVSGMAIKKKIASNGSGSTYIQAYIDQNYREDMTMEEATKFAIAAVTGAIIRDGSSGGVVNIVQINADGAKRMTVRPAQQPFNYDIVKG

Compound	Tv20S proteasome inhibition of β2 subunit (IC50) [1]	Tv20S proteasome inhibition of β1 subunit (IC50) [2]	Human c20S proteasome inhibition of β1 subunit (IC50) [5]	IC50 [6, 9] [nM]	IC50 [3, 10] [nM]	SI (ratio of GI50 in HeLa cells over GI50 in T. vaginalis) [7]	other results
CCCCCC(=O)N[C@H](CC(=O)N[C@@H](CCCC)C(=O)N[C@@H](Cc1ccc(F)cc1F)C(=O)[C@@]1(C)CO1)CC(=O)OC(C)(C)C [compound 75]	No inhibition	Activation	No inhibition	172 ± 91.7			Human c20S proteasome inhibition of β5 subunit (IC50) [3]: no measurable c20S β5 inhibitory activity; also recorded: No inhibition; Human c20S proteasome inhibition of β2 subunit (IC50) [4, 8]: No inhibition
CCCCC(=O)N[C@H](Cc1c[nH]c2ccccc12)C(=O)N[C@@H](Cc1c[nH]c2ccccc12)C(=O)N[C@@H](Cc1ccccc1)C(=O)[C@]1(C)CO1 [compound 91]	No inhibition	Activation	No inhibition	2.52 ± 1.05	8.81 ± 0.69		
COc1ccc(C[C@H](NC(=O)[C@H](C)NC(=O)C2=C(C)c3ccccc3C2)C(=O)N[C@@H](Cc2ccccc2)C(=O)[C@]2(C)CO2)cc1 [compound 22]	No inhibition	Activation	No inhibition	60.5 ± 8.1	84.8 ± 20.2	16.6	Human c20S proteasome inhibition of β2 subunit (IC50) [4, 8]: No inhibition
COc1ccc(CC(NC(=O)C(C)NC(=O)OCc2ccccc2)C(=O)NC(Cc2ccccc2)C(=O)C2(C)CO2)cc1 (centres unmarked) [compound 11]	No inhibition	Activation	No inhibition	4.29 ± 2.23	45.3 ± 4.67	51.3	Human c20S proteasome inhibition of β2 subunit (IC50) [4, 8]: No inhibition
COc1ccc(CC(NC(=O)C(C)NC(=O)CN2CCOCC2)C(=O)NC(Cc2ccc(-c3ccccc3)cc2)C(=O)C2(C)CO2)cc1 (centres unmarked) [compound 3]	No inhibition	Activation	No inhibition	12 ± 1.94		36.3	IC50 ([3]; Human c20S proteasome inhibition of β5 subunit (IC50)): 18.1 ± 3.26 nM; IC50 [4]: 271 ± 26.4 nM
COc1ccc(C[C@H](NC(=O)[C@H](C)NC(=O)CN2CCOCC2)C(=O)N[C@@H](CC2CCC(C3CCCCC3)CC2)C(=O)[C@@]2(C)CO2)cc1 (some centres unmarked) [compound 197]						< 0.71	
CCCCCC(=O)N[C@H](CCC(=O)OC(C)(C)C)CC(=O)N[C@@H](CCCC)C(=O)N[C@@H](Cc1ccccc1)C(=O)[C@@]1(C)CO1 [compound 94]						3.16	growth inhibitory activity against T. vaginalis (in words) ([7]; F1623): lacked activity and selectivity
COc1ccc(C[C@H](NC(=O)[C@H](C)NC(=O)C2=C(C)c3ccccc3C2)C(=O)N[C@@H](Cc2ccc(-c3ccccc3)cc2)C(=O)[C@]2(C)CO2)cc1 [compound 60]						8.13	
COc1ccc(C[C@H](NC(=O)[C@H](C)NC(=O)C2=C(C)c3ccccc3C2)C(=O)N[C@@H](Cc2ccccc2)C(=O)[C@@H]2CO2)cc1 [compound 66]						2.69	loss in selectivity [7, 11]: ~ 10 fold; reduction in activity against T. vaginalis [7, 11]: ~ 50 fold
CC(C)CC(NC(=O)C(CC12CC3CC(CC(C3)C1)C2)NC(=O)c1cnccn1)B(O)O (centres unmarked) [compound 32]						1.02	
CCCCCC(=O)N[C@H](C(=O)N[C@@H](CCS(C)(=O)=O)C(=O)N[C@@H](CC(C)C)C(=O)[C@@]1(C)CO1)C(C)C [38 (CPB), carmaphycin B, reference compound]		Activation		1.51 ± 0.69	7.92 ± 0.72		IC50 [1]: 440 ± 101 nM; IC50 [4, 12]: 14.6 ± 0.83 nM; IC50 [5]: 895 ± 510 nM; β5 SI ratio (c20S/Tv20S) [6]: 5.25
CSc1ccc(CC(=O)NC(C(=O)NC(Cc2c(F)c(F)c(F)c(F)c2F)C(=O)N[C@@H](CC(C)C)C(=O)[C@@]2(C)CO2)C(C)C)cc1 (some centres unmarked) [compound 50]	No inhibition	Activation	No inhibition	9.25 ± 1.81	13.8 ± 4.21		IC50 [4, 12]: 64.7 ± 8.19 nM
C[C@@]12OC(=O)[C@]1([C@@H](O)[C@@H]1C=CCCC1)NC(=O)[C@@H]2CCCl [18 (MZB), marizomib, reference compound]	No inhibition						IC50 [4, 12]: 46.7 ± 11.2 nM; IC50 [5]: 66.5 ± 11.7 nM; IC50 ([6]; Tv20S proteasome inhibition of β5 subunit (IC50), recombinant Tv20S, mean ± SD of three experiments): 0.88 ± 0.11 nM
COc1ccc(C[C@H](NC(=O)[C@H](C)NC(=O)CN2CCOCC2)C(=O)N[C@@H](CC2CCC(c3ccccc3)CC2)C(=O)[C@@]2(C)CO2)cc1 (some centres unmarked) [compound 201]						< 0.72	
CCCCCC(=O)N[C@@H](CO)C(=O)N[C@@H](CCCC)C(=O)N[C@@H](Cc1ccccc1)C(=O)[C@@]1(C)CO1 [compound 19]	No inhibition	Activation	No inhibition	21 ± 2.47	8.16 ± 1.8		IC50 [4, 12]: 2160 nM
COc1ccc(C[C@H](NC(=O)[C@H](C)NC(=O)CN2CCOCC2)C(=O)N[C@@H](Cc2ccc3ccccc3c2)C(=O)[C@@]2(C)CO2)cc1 [compound 35]						3.47	
CCCCC(=O)N[C@@H](Cc1ccc(O)cc1)C(=O)N[C@@H](CCCC)C(=O)N[C@@H](Cc1ccccc1)C(=O)[C@@]1(C)CO1 [compound 5]	No inhibition	Activation	No inhibition	2.43 ± 0.39	1.06 ± 0.08		IC50 [4, 12]: 68.2 ± 13 nM
CCCC[C@H](NC(=O)[C@H](CC(=O)N1CCCC1)NC(=O)[C@H](Cc1ccc(OC)cc1)N1CCCC1=O)C(=O)N[C@@H](Cc1ccc(F)cc1F)C(=O)[C@@]1(C)CO1 [compound 45]	No inhibition	Activation	No inhibition	82.6 ± 32.1	1010		Human c20S proteasome inhibition of β2 subunit (IC50) [4, 8]: No inhibition
CC(C)C[C@H](NC(=O)[C@H](Cc1ccccc1)NC(=O)c1cnccn1)B(O)O [43 (BTZ), bortezomib, reference compound]							IC50 [1]: 30.8 ± 19.9 nM; IC50 ([6]; read-out: Tv20S proteasome inhibition of β5 subunit (IC50)): 21.6 ± 1.69 nM
COc1ccc(C[C@H](NC(=O)[C@H](C)NC(=O)CN2CCOCC2)C(=O)N[C@@H](CC2CCCCC2)C(=O)[C@@]2(C)CO2)cc1 [compound 156]						0.83	
